Assays:
[1] = tested on: T. cruzi Tulahuen trypomastigotes; test: T. cruzi trypomastigote assay (Cell Titer-Glo viability, ATP luminescence); assay type: cell-based, Trypanosoma cruzi; settings: for Trypomastigotes pIC50 48 hours: 48 hours incubation; for Trypomastigotes pIC50 48 hours / Trypomastigotes pIC50 72 hours: pIC50 = -log10 IC50 in molar units; for Trypomastigotes pIC50 72 hours: 72 hours incubation; for 48 pIC50 / 72 pIC50: trypomastigote assay; for 48 pIC50: 48 h; for 72 pIC50: 72 h
Experimental: T. cruzi Tulahuen trypomastigotes obtained from the supernatants of LLC-MK2 infected cultures in a 225 cm^2 T-Flasks harvested between days 5 and 8 of infection. Trypomastigotes (5 × 10^4 per well) in 50 μl of DMEM/ 2% FBS were dispensed into white 384 plates (Greiner) pre-stamped with 250 nl compound a single-shot final concentration of 5 μM, or in dose response. […] Cell Titer-Glo cell viability solution (Promega) was added to each well (50 μL) incubated at room temperature for 10 min and luminescence read by Envision plate reader (Perkin Elmer). This assay quantifies the amount of ATP present which is directly proportional to the number of metabolically active cells. All data were normalised (100% effect control for no cells and 0% effect control for DMSO). This assay was adapted from MacLean et al., 2018 [22].

TcCYP51 = settings: formerly reported; cited from earlier work

COc1ccc2nc(N(Cc3cccnc3)C(=O)C3CCC3)sc2c1 [TCMDC-143437]
Trypomastigotes pIC50 48 hours [1]: < 4.3 | Trypomastigotes pIC50 72 hours [1]: < 4.3 | 48 pIC50 ([1]; figure 1A): < 4.3 | 72 pIC50 ([1]; figure 1A): < 4.3 | 72 pIC50 ([1]; figure 1B): < 4.3 | CYP51 pIC50 (TcCYP51): 7.2

O=C(Cn1cnc([N+](=O)[O-])n1)Nc1ccc(Cl)cc1C(=O)c1ccccc1 [TCMDC-143616]
Trypomastigotes pIC50 48 hours [1]: 6 | Trypomastigotes pIC50 72 hours [1]: 6 | 48 pIC50 ([1]; figure 1A): 6 | 72 pIC50 ([1]; figure 1A): 6 | 72 pIC50 ([1]; figure 1B): 6 | CYP51 pIC50 (TcCYP51): 5

Cc1cccc(NS(=O)(=O)c2cnc3sc(C)cn3c2=O)c1 [TCMDC-143372]
Trypomastigotes pIC50 48 hours [1]: < 4.3 | Trypomastigotes pIC50 72 hours [1]: < 4.3 | 48 pIC50 ([1]; figure 1A): < 4.3 | 72 pIC50 ([1]; figure 1A): < 4.3 | 72 pIC50 ([1]; figure 1B): < 4.3 | CYP51 pIC50 (TcCYP51): < 4

Cc1c(CNC(=O)c2ccc(Cn3cc(Cl)c([N+](=O)[O-])n3)cc2)cnn1C [TCMDC-143153]
Trypomastigotes pIC50 48 hours [1]: 4.7 | Trypomastigotes pIC50 72 hours [1]: 5.3 | CYP51 pIC50 (TcCYP51): < 4

Cc1ccc(NC(=O)C(C)n2nc([N+](=O)[O-])c(Br)c2C)cc1Cl (stereo not drawn) [TCMDC-143338]
Trypomastigotes pIC50 48 hours [1]: 5.5 | Trypomastigotes pIC50 72 hours [1]: 5.3 | CYP51 pIC50 (TcCYP51): < 4

COc1ccc(-c2nc3ccncc3c(=O)n2CCOc2ccccc2)cc1 [TCMDC-143182]
Trypomastigotes pIC50 48 hours [1]: < 4.3 | Trypomastigotes pIC50 72 hours [1]: < 4.3 | 48 pIC50 ([1]; figure 1A): < 4.3 | 72 pIC50 ([1]; figure 1A): < 4.3 | 72 pIC50 ([1]; figure 1B): < 4.3 | CYP51 pIC50 (TcCYP51): 7.4

O=S(=O)(NCC(c1cccnc1)N1CCN(c2ccc(F)cc2)CC1)c1cccs1 (stereo not drawn) [TCMDC-143542]
Trypomastigotes pIC50 48 hours [1]: < 4.3 | Trypomastigotes pIC50 72 hours [1]: < 4.3 | 48 pIC50 ([1]; figure 1A): < 4.3 | 72 pIC50 ([1]; figure 1A): < 4.3 | 72 pIC50 ([1]; figure 1B): < 4.3 | CYP51 pIC50 (TcCYP51): 7.4

O=C(Nc1nc(-c2ccc(S(=O)(=O)N3CCOCC3)cc2)cs1)c1ccc([N+](=O)[O-])cc1 [TCMDC-143282]
Trypomastigotes pIC50 48 hours [1]: 5.8 | Trypomastigotes pIC50 72 hours [1]: 5.8 | 48 pIC50 ([1]; figure 1A): 5.8 | 72 pIC50 ([1]; figure 1A): 5.8 | 72 pIC50 ([1]; figure 1B): 5.8 | CYP51 pIC50 (TcCYP51): < 4

O=C1CN(C2CCCc3c(OCc4ccncc4)cccc32)C(=O)N1C1CCCCC1 (stereo not drawn) [TCMDC-143613]
Trypomastigotes pIC50 48 hours [1]: < 4.3 | Trypomastigotes pIC50 72 hours [1]: < 4.3 | 48 pIC50 ([1]; figure 1A): < 4.3 | 72 pIC50 ([1]; figure 1A): < 4.3 | 72 pIC50 ([1]; figure 1B): < 4.3 | CYP51 pIC50 (TcCYP51): 7.7

O=C(NC(c1ccc(Cl)cc1)c1cnccn1)C1CCN(C(=O)Nc2cccc(C(F)(F)F)c2)CC1 (stereo not drawn) [TCMDC-143561]
Trypomastigotes pIC50 48 hours [1]: < 4.3 | Trypomastigotes pIC50 72 hours [1]: < 4.3 | 48 pIC50 ([1]; figure 1A): < 4.3 | 72 pIC50 ([1]; figure 1A): < 4.3 | 72 pIC50 ([1]; figure 1B): < 4.3 | CYP51 pIC50 (TcCYP51): 6.9

Clc1ccc(OCCN2CCCCC2c2cccnc2)c(Cl)c1 (stereo not drawn) [TCMDC-143235]
Trypomastigotes pIC50 48 hours [1]: 4.4 | Trypomastigotes pIC50 72 hours [1]: 4.4 | 48 pIC50 ([1]; figure 1A): 4.4 | 72 pIC50 ([1]; figure 1A): 4.4 | 72 pIC50 ([1]; figure 1B): 4.4 | CYP51 pIC50 (TcCYP51): 7.2

Cc1cc(C#N)c([N+](=O)[O-])cc1Br [TCMDC-143541]
Trypomastigotes pIC50 48 hours [1]: 5.8 | Trypomastigotes pIC50 72 hours [1]: 5.5 | CYP51 pIC50 (TcCYP51): 5.1

CC(=O)Nc1ccc(-c2csc(NC(=O)c3ccc([N+](=O)[O-])s3)n2)cc1 [TCMDC-143164]
Trypomastigotes pIC50 48 hours [1]: 6.4 | Trypomastigotes pIC50 72 hours [1]: 6.6 | CYP51 pIC50 (TcCYP51): 5.2

C=CCOCC1Cn2nc([N+](=O)[O-])nc2O1 (stereo not drawn) [TCMDC-143149]
Trypomastigotes pIC50 48 hours [1]: < 4.3 | Trypomastigotes pIC50 72 hours [1]: < 4.3 | 48 pIC50 ([1]; figure 1A): < 4.3 | 72 pIC50 ([1]; figure 1A): < 4.3 | 72 pIC50 ([1]; figure 1B): < 4.3 | CYP51 pIC50 (TcCYP51): < 4

CC(Cn1ccnc1)NC(=O)COc1ccc(Cl)c(Cl)c1 (stereo not drawn) [TCMDC-143479]
Trypomastigotes pIC50 48 hours [1]: < 4.3 | Trypomastigotes pIC50 72 hours [1]: < 4.3 | 48 pIC50 ([1]; figure 1A): < 4.3 | 72 pIC50 ([1]; figure 1A): < 4.3 | 72 pIC50 ([1]; figure 1B): < 4.3 | CYP51 pIC50 (TcCYP51): 7.2

CC(Cn1ccnc1)NC(=O)C1CC1c1cccc(Cl)c1Cl (stereo not drawn) [TCMDC-143506]
Trypomastigotes pIC50 48 hours [1]: < 4.3 | Trypomastigotes pIC50 72 hours [1]: < 4.3 | 48 pIC50 ([1]; figure 1A): < 4.3 | 72 pIC50 ([1]; figure 1A): < 4.3 | 72 pIC50 ([1]; figure 1B): < 4.3 | CYP51 pIC50 (TcCYP51): 6.9

Cc1cc(C)c(C#N)c(SCC(=O)c2ccc3c(c2)OCO3)n1 [TCMDC-143625]
Trypomastigotes pIC50 48 hours [1]: 5.7 | Trypomastigotes pIC50 72 hours [1]: 5.5 | CYP51 pIC50 (TcCYP51): < 4

O=C(NCC(c1cccnc1)N1CCc2ccccc2C1)C(=O)Nc1cccc(Cl)c1 (stereo not drawn) [TCMDC-143329]
Trypomastigotes pIC50 48 hours [1]: 4.8 | Trypomastigotes pIC50 72 hours [1]: 4.8 | 48 pIC50 ([1]; figure 1A): 4.8 | 72 pIC50 ([1]; figure 1A): 4.8 | 72 pIC50 ([1]; figure 1B): 4.8 | CYP51 pIC50 (TcCYP51): 7.2

Cc1cc2ncn(-c3ccc([N+](=O)[O-])cc3C#N)c2cc1C [TCMDC-143546]
Trypomastigotes pIC50 48 hours [1]: 5.7 | Trypomastigotes pIC50 72 hours [1]: 5.9 | CYP51 pIC50 (TcCYP51): < 4

Cl.Cl.NC(=O)c1ccc(-c2cccc(OCCN3CCN(C4CCCCC4)CC3)c2)cc1 [TCMDC-143598]
Trypomastigotes pIC50 48 hours [1]: < 4.3 | Trypomastigotes pIC50 72 hours [1]: < 4.3 | 48 pIC50 ([1]; figure 1A): < 4.3 | 72 pIC50 ([1]; figure 1A): < 4.3 | 72 pIC50 ([1]; figure 1B): < 4.3 | CYP51 pIC50 (TcCYP51): 4.4

Clc1ccc(CN2CCN(C3=NCCN3)CC2)cc1Cl.I.I [TCMDC-143605]
Trypomastigotes pIC50 48 hours [1]: 5.6 | Trypomastigotes pIC50 72 hours [1]: 5.3 | CYP51 pIC50 (TcCYP51): < 4

CN1CCN(c2nc(-c3ccc(Cl)cc3)c3c(N)n(C)nc3n2)CC1 [TCMDC-143426]
Trypomastigotes pIC50 48 hours [1]: < 4.3 | Trypomastigotes pIC50 72 hours [1]: < 4.3 | 48 pIC50 ([1]; figure 1A): < 4.3 | 72 pIC50 ([1]; figure 1A): < 4.3 | 72 pIC50 ([1]; figure 1B): < 4.3 | CYP51 pIC50 (TcCYP51): < 4
